Measurements reported in patent US9028842B2, “Compositions and methods for treatment, research and therapeutic applications for malaria” (priority 2007, dated 2015).
Where no end group is shown, it is not given here.

Columns and labels:
[1] = system: P. falciparum infected erythrocytes expressing PfHRPII-GFP; experiment: Endocytic lipid import with the lipid marker FM4-64; format: cell-based, Plasmodium falciparum; conditions: 5 μM PPMP, short-term (30 min)
Procedure: FM4-64 (N-(3-triethylammoniumpropyl)-4-(6-(4-(diethylamino)phenyl)hexatrienyl)pyridinium dibromide) is a fluorescent lipid marker that has been used to study endocytosis in eukaryotic cells^18. To visualize active uptake of FM4-64 from the erythrocyte plasma membrane during intraerythrocytic growth, trophozoite stage parasites expressing either PfHRPII-GFP or PFD0495c-GFP were incubated in the absence or presence of 5 μM dl-threo-PPMP for 30 min at 37° C. Infected erythrocytes were washed three times in PBS then stained with 16 μM FM4-64 for 30 min at 37° C. Nuclei were stained with 10 μg/mL Hoechst 33342, and cells were washed with PBS three times. Cells were imaged live with DeltaVision Deconvolution microscopy^10.

[2] = system: P. falciparum 3D7 ring stage parasites; experiment: Transcriptional response to PPMP treatment by microarrays; format: cell-based, Plasmodium falciparum; conditions: 5 μM dl-threo-PPMP, 24 hr, relative to control trophozoites
Procedure: Ring stage parasites were treated with either 5 μM dl-threo-PPMP or vehicle ([ethanol]f=0.01%) for 24 hr and were harvested for RNA isolation. Untreated ring stage parasites were also harvested. The experimental design served to compare PPMP— to either mock-treated or ring stage transcripts. RNA was isolated according to Invitrogen (Carlsbad, Calif.) protocols using Trizol. First strand cDNA synthesis and hybridizations were performed according to previous protocols^24. Microarray slides were scanned using GenePix 4000B Scanner and analyzed with GenePix Pro 4.1. The statistical program R with the add-in package SMA (http://www. followed by stat.berkeley.edu/%7Eterry/zarray/Software/smacode.html) was used to normalize data^25,26. Only high quality features and those with signal two standard deviations above background were analyzed, leaving 4580 elements from a total of 8088 oligos. Features with a log odds ratio above zero were considered.

[3] = system: P. falciparum ring stage parasites; experiment: Quantitative RT-PCR of PFD0495c transcript after PPMP treatment; format: cell-based, Plasmodium falciparum; conditions: 5 μM PPMP, 12 and 24 hr of treatment
Procedure: Quantitative PCR was used to confirm the array results. Parasites were synchronized by successive rounds of percoll and sorbitol. Ring stage parasites were treated with either 5 μM dl-threo-PPMP or vehicle (ethanol=0.01%) for 3, 6, 12, and 24 h. RNA was isolated using Trizol (Invitrogen) and treated with DNAse (Promega) according the manufacturer's recommendations. Integrity of the RNA was confirmed with the 2100 Bioanalyzer (Agilent). First strand cDNA synthesis was initiated by priming 5 ug RNA with 40 ug/mL oligo(dT)12-18 at 65° C. for 5 min then incubating reaction with 0.5 mM dNTPs and 200 U SuperScript reverse transcriptase (Invitrogen) for 60 min at 42° C. The reaction was inactivated by heating to 70° C. for 15 min. […]
Amplification of P. falciparum 18S ribosomal RNA (GI 160642), an endogenous control, was done in parallel (forward 5′-ACAATTGGAGGGCAAGT-′3 (SEQ ID NO:39), reverse 5′-TTGGAGCTGGAATTACC-3′ (SEQ ID NO:40)) to standardize the amount of sample in each well. […] Relative quantification was performed using the comparative method, whereby the amount of PFD0495c was normalized to the endogenous control 18S rRNA. […]

[4] = system: P. falciparum 3D7 and PFD0495c-GFP clones; conditions: after 36 h of treatment, previous studies; cited from earlier work
[5] = system: P. falciparum 3D7 and PFD0495c-GFP clones; experiment: Reversibility of treatment with PPMP after 24 hr; format: cell-based, Plasmodium falciparum
Procedure: Synchronized ring stage parasites at 5-10% pst were incubated with 5 uM PPMP for 24 hr (day 1). Infected erythrocytes were washed with RPMI 1640 three times to remove PPMP then put back into culture. Blood smears were made at days 0, 1, 2, and 3 and stained with Giemsa. Parasites were fed fresh media every 24 hr. Rings, trophozoites and schizonts were enumerated by a counter who was blinded to sample identity. Both PFD0495c-GFP clones responded to PPMP in the same manner as 3D7. […] When PPMP was washed out, all parasites continued the cell cycle and at day 2 matured to schizonts, which formed new rings by day 3.

P. falciparum = experiment: GST-fusions loaded into resealed erythrocyte ghosts, then infection by Plasmodium falciparum; format: cell-based
Text: Erythrocytes were loaded with GST cargo and resealed according to previous protocols^15. Schizonts were percoll-purified to >95% purity and mixed with loaded ghosts at 2% parasitemia. Numbers of rings, trophozoites and schizonts were enumerated by a counter who was blinded to sample identity. Parasite morphology was monitored for any differences. Images of blood smears were taken by light microscopy with a Zeiss Axioskop upright microscope and Nuance spectral camera/un-mixing system (Cambridge Research and Instrumentation).

[6] = system: TVN of P. falciparum infected ghosts; experiment: Visualization of tubovesicular network by BODIPY-Texas Red C5 ceramide staining; format: cell-based, Plasmodium falciparum; conditions: 10 μM in erythrocyte cytoplasm
Procedure: To visualize TVN membranes, erythrocytes or ghosts infected with indicated P. falciparum strain were washed free of serum and stained with 2.5 μM BODIPY-Texas Red C5 ceramide (N-((4-(4,4-difluoro-5-(2-thienyl)-4-bora-3a,4a-diaza-s-indacene-3-yl)phenoxy)acetyl)sphingosine, Invitrogen) for 15 min at 37° C. Nuclei were stained with 10 μg/mL Hoechst 33342. The cells were washed in RPMI 1640 three times and viewed live by DeltaVision Deconvolution microscopy as described^9.

[7] = system: P. falciparum 3D7 infected ghosts; experiment: Indirect immunofluorescence assay of parasite protein export in infected ghosts; format: cell-based, Plasmodium falciparum; conditions: 10 μM in erythrocyte cytoplasm
Procedure: Indirect immunofluorescence assay was conducted as described^27. Ghosts that were infected with 3D7 were probed with antibodies to HRPII (Santa Cruz) and MSP1 (MR4) and appropriate secondary antibodies conjugated to FITC or rhodamine. Nuclei were stained with 10 μg/mL Hoechst 33342. Images were captured using DeltaVision Deconvolution microscopy as described^10.

[8] = 50 μM in resealed erythrocyte ghosts

Row | Compound | internalization of FM4-64 via TVN tubules [1] | PFC0435w transcriptional change (down regulated) [2] [fold] | PFD0495c transcriptional change (upregulated) [2] [fold] | PFD0495c transcript level compared to vehicle control [3] | concentrations inhibiting 50% and 90% parasite growth [4] | reversibility of effects on parasite growth upon washing out drug ([5]; 5 μM PPMP 24 h, parent line and transgenic clones) | parasite stage after 24 incubation ([5]; 5 uM PPMP, 3D7 and both PFD0495c-GFP clones) | effect on invasion (measured as ring formation) (P. falciparum; [8]) | effect on trophozoite growth (P. falciparum; [8]) | parasitemia on Day 3 (P. falciparum; ghosts loaded with 10 μM) | effect on tubular-TVN development [6] | effect on parasite protein export [7]
1 | CCCCCCCCCCCCCCCC(=O)N[C@H](CN1CCOCC1)[C@H](O)c1ccccc1 (racemic) [PPMP, dl-threo-1-phenyl-2-palmitoyl-3-morpholino-1-propanol] | blocked | ~4 | ~3 | significantly up-regulated | low micromolar | completely reversible | remained at the trophozoite stage | – | – | – | – | –
2 | GST-PFD0495cCterm: recombinant form of the C-terminal region of PFD0495c (amino acids 795 to 833) fused to glutathione S-transferase (DLDIDDTLKFQHDQEFLNYFKRYQDFNNQLFDSFRSDDR; also: fused to glutathione S-transferase) | – | – | – | – | – | – | – | no significant effect | inhibitory | 6-7% | disrupted | no deleterious effect
